Source: patent publication US4668627A, “Novel antibiotic compound” (Kureha Kagaku Kogyo Kabushiki Kaisha, priority 1982, dated 1987)
≈ marks a conversion by molar mass, not a printed value.

Experiments:
[1] = solubility in organic solvents; type: physicochemical
[2] = tested on: Microsporum gypseum IFO 5948; test: MIC, agar dilution, nutrient agar medium; type: cell-based; conditions: Nannizzia gypsea, IFO5948
[3] = tested on: Bacillus subtilis PCI 219; test: MIC, agar dilution, nutrient agar medium; type: cell-based; conditions: PCI219
[4] = tested on: Xanthomonas oryzae IAM 1657; test: microbe, parasite or virus in culture; type: cell-based; conditions: IAM1657
[5] = tested on: Serratia marcescens IAM 1065; test: MIC, agar dilution, nutrient agar medium; type: cell-based; conditions: IAM1065
[6] = tested on: Corynebacterium faciens IAM 1079; test: MIC, agar dilution, nutrient agar medium; type: cell-based; conditions: IAM1079
[7] = tested on: Citrobacter freundii IFO 12681; test: MIC, agar dilution, nutrient agar medium; type: cell-based; conditions: IFO12681
Pseudomonas putida T-2 = test: MIC, agar dilution, nutrient agar medium; type: cell-based; conditions: T2
[8] = tested on: Micrococcus lysodeikticus; test: MIC, agar dilution, nutrient agar medium; type: cell-based; conditions: Micrococcus luteus
[9] = tested on: Pseudomonas aeruginosa IFO 3080; test: MIC, agar dilution, nutrient agar medium; type: cell-based; conditions: IFO3080
[10] = tested on: Mycobacterium avium IFO 3082; test: MIC, agar dilution, nutrient agar medium; type: cell-based; conditions: IFO3082
[11] = tested on: Proteus inconstans IFO 12930; test: MIC, agar dilution, nutrient agar medium; type: cell-based; conditions: Providencia alcalifaciens, IFO12930
mouse = test: acute toxicity to mouse, intraperitoneal; type: in vivo; conditions: intraperitoneally, 100 mg/kg
[12] = tested on: Micrococcus luteus PCI 1001; test: MIC, agar dilution, nutrient agar medium; type: cell-based; conditions: PCI1001
[13] = tested on: Pseudomonas fluorescens IFO 3903; test: MIC, agar dilution, nutrient agar medium; type: cell-based; conditions: IFO3903
Pseudomonas ovalis = test: MIC, agar dilution, nutrient agar medium; type: cell-based; conditions: Pseudomonas putida
[14] = tested on: Trichophyton interdigitale; test: MIC, agar dilution, nutrient agar medium; type: cell-based
[15] = tested on: Vibrio-metshnikov IAM 1039; test: MIC, agar dilution, nutrient agar medium; type: cell-based
[16] = tested on: Streptococcus pyogenes IFO 3340; test: MIC, agar dilution, nutrient agar medium; type: cell-based; conditions: IFO3340
[17] = tested on: Peptostreptococcus parvulus; test: MIC, agar dilution, nutrient agar medium; type: cell-based; conditions: Lancefieldella parvula
Bacteroides fragilis = test: MIC, agar dilution, nutrient agar medium; type: cell-based
[18] = tested on: Lactobacillus acidophilus; test: MIC, agar dilution, nutrient agar medium; type: cell-based
[19] = tested on: Epidermophyton floccosum IFO 9045; test: MIC, agar dilution, nutrient agar medium; type: cell-based; conditions: IFO9045
Eubacterium aerofaciens = test: MIC, agar dilution, nutrient agar medium; type: cell-based; conditions: Collinsella aerofaciens
[20] = tested on: Aspergillus fumigatus IAM 2155; test: MIC, agar dilution, nutrient agar medium; type: cell-based; conditions: IAM2155
[21] = tested on: Proteus morganii IFO 3168; test: MIC, agar dilution, nutrient agar medium; type: cell-based; conditions: Morganella morganii, IFO3168
[22] = tested on: Proteus mirabilis IFO 3849; test: MIC, agar dilution, nutrient agar medium; type: cell-based; conditions: IFO3849
[23] = tested on: Bifidobacterium adolescentis; test: MIC, agar dilution, nutrient agar medium; type: cell-based
[24] = tested on: Proteus vulgaris IFO 3167; test: MIC, agar dilution, nutrient agar medium; type: cell-based; conditions: IFO3167
[25] = tested on: Aspergillus niger IFO 6342; test: MIC, agar dilution, nutrient agar medium; type: cell-based; conditions: IFO6342
[26] = tested on: Trichophyton rubrum IFO 5467; test: MIC, agar dilution, nutrient agar medium; type: cell-based; conditions: IFO5467
Peptococcus aerogenes = test: MIC, agar dilution, nutrient agar medium; type: cell-based; conditions: Peptoniphilus asaccharolyticus
[27] = tested on: Corynebacterium equi IFO 3730; test: MIC, agar dilution, nutrient agar medium; type: cell-based; conditions: Rhodococcus (subgen. Prescottella) equi, IFO3730
[28] = tested on: Staphylococcus aureus 209 p; test: MIC, agar dilution, nutrient agar medium; type: cell-based
[29] = tested on: Aspergillus oryzae IAM 2732; test: MIC, agar dilution, nutrient agar medium; type: cell-based; conditions: IAM2732
[30] = tested on: Salmonella abortusequi ATCC 9842; test: MIC, agar dilution, nutrient agar medium; type: cell-based; conditions: Salmonella enterica, ATCC9842
Salmonella anatum 1 = test: MIC, agar dilution, nutrient agar medium; type: cell-based; conditions: Salmonella enterica
[31] = tested on: Candida albicans IAM 4905; test: MIC, agar dilution, nutrient agar medium; type: cell-based; conditions: IAM4905
Erwinia aroidae IAM 1068 = test: MIC, agar dilution, nutrient agar medium; type: cell-based; conditions: IAM1068
[32] = tested on: Vibrio tyrogenes IAM 1080; test: MIC, agar dilution, nutrient agar medium; type: cell-based; conditions: IAM1080
[33] = tested on: Penicillium funiculosum IFO 6345; test: MIC, agar dilution, nutrient agar medium; type: cell-based; conditions: Talaromyces funiculosus, IFO6345
[34] = tested on: various gram-positive and gram-negative bacteria; test: antibacterial activity (general statement); type: cell-based
[35] = tested on: Peptostreptococcus micros; test: MIC, agar dilution, nutrient agar medium; type: cell-based; conditions: Parvimonas micra
[36] = tested on: Aerobacter aerogenes ATCC 8724; test: MIC, agar dilution, nutrient agar medium; type: cell-based; conditions: Klebsiella aerogenes, ATCC8724
[37] = tested on: Klebsiella pneumoniae IFO 12015; test: MIC, agar dilution, nutrient agar medium; type: cell-based; conditions: IFO12015
Saccharomyces cerevisiae = test: MIC, agar dilution, nutrient agar medium; type: cell-based
[38] = tested on: Escherichia coli K-12 IAM 1264; test: MIC, agar dilution, nutrient agar medium; type: cell-based; conditions: IAM1264
[39] = tested on: Fusobacterium necrophorum; test: MIC, agar dilution, nutrient agar medium; type: cell-based

[C-]#[N+]C12CC3(/C=C/C(=O)O)OC3C1O2 (stereo not shown) [Antibiotic No. 2188, 3-(6-isocyano-3,7-dioxatricyclo[4.1.0.0^2,4]hept-4-yl)propenoic acid]
solubility ([1]; hexane and petroleum ether): insoluble | solubility ([1]; methanol, ethanol, acetone, ethyl acetate, chloroform and benzene): soluble | MIC [2]: 100 µg/mL (≈ 518 µM) | MIC [3]: 12.5 µg/mL (≈ 64.7 µM) | MIC [4]: 50 µg/mL (≈ 259 µM) | MIC [5]: > 100 µg/mL | MIC [6]: 12.5 µg/mL (≈ 64.7 µM) | MIC [7]: 12.5 µg/mL (≈ 64.7 µM) | MIC (Pseudomonas putida T-2): 6.25 µg/mL (≈ 32.4 µM) | MIC [8]: 6.25 µg/mL (≈ 32.4 µM) | MIC [9]: 100 µg/mL (≈ 518 µM) | MIC [10]: 12.5 µg/mL (≈ 64.7 µM) | MIC [11]: 50 µg/mL (≈ 259 µM) | acute toxicity (mouse): no acute toxicity | MIC [12]: 6.25 µg/mL (≈ 32.4 µM) | MIC [13]: 12.5 µg/mL (≈ 64.7 µM) | MIC (Pseudomonas ovalis): > 100 µg/mL | MIC [14]: 100 µg/mL (≈ 518 µM) | MIC [15]: 1.6 µg/mL (≈ 8.28 µM) | MIC [16]: 6.25 µg/mL (≈ 32.4 µM) | MIC [17]: 50 µg/mL (≈ 259 µM) | MIC (Bacteroides fragilis): 50 µg/mL (≈ 259 µM) | MIC [18]: 200 µg/mL (≈ 1040 µM) | MIC [19]: 50 µg/mL (≈ 259 µM) | MIC (Eubacterium aerofaciens): > 200 µg/mL | MIC [20]: 100 µg/mL (≈ 518 µM) | MIC [21]: 12.5 µg/mL (≈ 64.7 µM) | MIC [22]: 50 µg/mL (≈ 259 µM) | MIC [23]: 200 µg/mL (≈ 1040 µM) | MIC [24]: 12.5 µg/mL (≈ 64.7 µM) | MIC [25]: > 200 µg/mL | MIC [26]: 50 µg/mL (≈ 259 µM) | MIC (Peptococcus aerogenes): 25 µg/mL (≈ 129 µM) | MIC [27]: 6.25 µg/mL (≈ 32.4 µM) | MIC [28]: 6.25 µg/mL (≈ 32.4 µM) | MIC [29]: > 200 µg/mL | MIC [30]: 12.5 µg/mL (≈ 64.7 µM) | MIC (Salmonella anatum 1): 12.5 µg/mL (≈ 64.7 µM) | MIC [31]: > 200 µg/mL | MIC (Erwinia aroidae IAM 1068): 25 µg/mL (≈ 129 µM) | MIC [32]: 3.1 µg/mL (≈ 16 µM) | MIC [33]: 200 µg/mL (≈ 1040 µM) | antibacterial activity [34]: shows an antibacterial activity against various gram-positive and gram-negative bacteria | MIC [35]: 25 µg/mL (≈ 129 µM) | MIC [36]: 50 µg/mL (≈ 259 µM) | MIC [37]: 50 µg/mL (≈ 259 µM) | MIC (Saccharomyces cerevisiae): > 200 µg/mL | MIC [38]: 12.5 µg/mL (≈ 64.7 µM) | MIC [39]: 50 µg/mL (≈ 259 µM)
